Each structure is given as a SMILES string.

Holding throughout (assay type): biochemical
In one assay the target is T1, Gelatinase 72KD (Homo sapiens, UniProt P08253).
T1 sequence (P08253 110-660): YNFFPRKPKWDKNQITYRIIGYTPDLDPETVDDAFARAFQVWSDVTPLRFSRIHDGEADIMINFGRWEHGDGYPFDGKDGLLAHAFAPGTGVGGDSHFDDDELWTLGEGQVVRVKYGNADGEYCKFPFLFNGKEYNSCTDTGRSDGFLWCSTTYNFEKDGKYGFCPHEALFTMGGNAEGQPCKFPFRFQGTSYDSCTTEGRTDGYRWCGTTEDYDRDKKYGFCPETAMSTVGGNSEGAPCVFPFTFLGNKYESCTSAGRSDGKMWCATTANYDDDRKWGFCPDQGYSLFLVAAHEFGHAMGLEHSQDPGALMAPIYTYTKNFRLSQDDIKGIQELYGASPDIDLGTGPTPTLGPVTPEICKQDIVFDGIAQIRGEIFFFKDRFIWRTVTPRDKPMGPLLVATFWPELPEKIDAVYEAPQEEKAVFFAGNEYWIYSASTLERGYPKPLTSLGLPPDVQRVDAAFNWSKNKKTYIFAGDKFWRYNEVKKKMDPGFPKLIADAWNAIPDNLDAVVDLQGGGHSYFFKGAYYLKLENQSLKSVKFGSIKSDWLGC
The experiment in a line: Enzyme inhibition assay (fluorimetric, peptide substrate Dnp-Pro-Leu-Gly-Trp-Ala-D-Arg-NH2), gelatinase. To be noted: true Ki from plot of Ki (app) vs. [S]; pH 7.5, overnight. Here is the method:
(§1) The activity and selectivity of the compounds of the invention may be determined as described below. All enzyme assays to determine Ki values were performed using the peptide substrate […]. [M. Sharon Stock and Rober D. Gray, JBC 264, 4277-81, 1989]. The enzymes cleave at the Gly-Leu bond which can be followed fluorimetrically by measuring the increase in Trp fluorescence emission associated with the removal of the quenching dinitrophenol (Dnp) group. […] Brij 35 at either room temperature or 37° C. depending on the enzyme. The reaction is stopped by adjusting the pH to 4 using 0.1M sodium acetate buffer and the fluorescence read at an excitation wavelength of 280 nm and emission wavelength of 346 nm. […] For stromelysin and collagenase, Ki (app) was assumed to approximate to the true Ki as [S]<<Km for the substrate hydrolysis. For gelatinase the Ki was determined by performing the analyses at several substrate concentrations. A plot of Ki (app) vs. [S] then gave the true Ki as the value of the y-axis intercept.

Another assay has as its target Stromelysin-1 (Homo sapiens, UniProt P08254). The experiment in a line: Enzyme inhibition assay (fluorimetric, peptide substrate Dnp-Pro-Leu-Gly-Trp-Ala-D-Arg-NH2), stromelysin. To be noted: Ki (app) assumed to approximate to the true Ki; pH 7.5, overnight. Here is the method:
as §1

For another assay, the target named is T2, Collagenase (Homo sapiens, UniProt P03956).
T2 sequence (P03956 100-469): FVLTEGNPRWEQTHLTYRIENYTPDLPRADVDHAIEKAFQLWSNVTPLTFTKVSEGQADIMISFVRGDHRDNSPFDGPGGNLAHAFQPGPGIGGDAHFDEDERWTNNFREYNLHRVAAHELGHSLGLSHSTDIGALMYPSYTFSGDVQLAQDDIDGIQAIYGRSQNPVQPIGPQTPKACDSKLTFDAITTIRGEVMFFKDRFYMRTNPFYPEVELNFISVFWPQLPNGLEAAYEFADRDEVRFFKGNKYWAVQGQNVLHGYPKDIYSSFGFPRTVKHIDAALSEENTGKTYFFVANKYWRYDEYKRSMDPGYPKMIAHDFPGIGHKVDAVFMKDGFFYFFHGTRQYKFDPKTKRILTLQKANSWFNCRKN
Put plainly: Enzyme inhibition assay (fluorimetric, peptide substrate Dnp-Pro-Leu-Gly-Trp-Ala-D-Arg-NH2), collagenase. The settings on record: Ki (app) assumed to approximate to the true Ki; pH 7.5, overnight. The method, then: as §1

Sequence of Stromelysin-1 (P08254 100-477, species assumed): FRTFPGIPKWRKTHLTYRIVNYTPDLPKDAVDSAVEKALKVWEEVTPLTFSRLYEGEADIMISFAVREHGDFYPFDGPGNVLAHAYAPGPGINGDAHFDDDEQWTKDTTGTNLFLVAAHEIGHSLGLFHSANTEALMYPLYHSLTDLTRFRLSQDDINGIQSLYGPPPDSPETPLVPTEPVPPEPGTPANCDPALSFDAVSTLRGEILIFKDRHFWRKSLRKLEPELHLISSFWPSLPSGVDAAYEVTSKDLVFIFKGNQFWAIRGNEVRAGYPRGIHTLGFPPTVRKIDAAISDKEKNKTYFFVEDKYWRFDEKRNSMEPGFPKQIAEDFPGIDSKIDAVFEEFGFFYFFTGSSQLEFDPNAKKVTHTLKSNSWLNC

As to `Cc1ccc(CCC[C@H](CC(=O)O)C(=O)N[C@@H](CC2CCCCC2)C(=O)NCCNS(=O)(=O)N2CCOCC2)cc1` [Example 2, {4-Hydroxy-2-(R)-[3-(4-methylphenyl)propyl]succinyl}-L-β-cyclohexylalanine-N-[(2-morpholinesulphonylamino)ethyl]amide], the Ki at Gelatinase 72KD turned out to be 1.43 nM; on Stromelysin-1, 802 nM; at Collagenase, 100000 nM.

Consider `Cc1ccc(CCC[C@H](CC(=O)NO)C(=O)N[C@@H](CC2CCCCC2)C(=O)NCCNS(=O)(=O)N2CCOCC2)cc1` [Example 3, {4-(N-Hydroxyamino)-2(R)-[3-(4-methylphenyl)propyl]succinyl}-L-β-cyclohexylalanine-N-[(2-morpholinesulphonylamino)ethyl]amide], for which the Ki on Stromelysin-1 amounted to 2.75 nM; at Collagenase, 385 nM.

Consider `O=C(C[C@@H](CCCc1ccc(Cl)cc1)C(=O)N[C@@H](CC1CCCCC1)C(=O)NCCNS(=O)(=O)N1CCOCC1)NO` [Example 4, {4-(N-Hydroxyamino)-2(R)-[3-(4-chlorophenyl)propyl]succinyl}-L-β-cyclohexylalanine-N-[(2-morpholinesulphonylamino)ethyl]amide], for which the results for the Ki at Gelatinase 72KD, at Stromelysin-1 and at Collagenase were 0.014 nM, 1.73 nM and 302 nM, respectively.

For `Cc1ccc(CCC[C@H](CC(=O)NO)C(=O)N[C@@H](CC2=CCCCC2)C(=O)NCCNS(=O)(=O)N2CCOCC2)cc1` [Example 5, {4-(N-Hydroxyamino)-2(R)-[3-(4-methylphenyl)propyl]succinyl}-L-β-(1-cyclohexenylalanine)-N-[(2-morpholinesphonylamino)ethyl]amide], the Ki at Gelatinase 72KD was 0.047 nM; on Stromelysin-1, 18.7 nM; at Collagenase it was 554 nM.

`Cc1ccc(CCC[C@H](CC(=O)NO)C(=O)N[C@@H](CC2CCCCC2)C(=O)NCCCNS(=O)(=O)N(C)C)cc1` [Example 6]: the Ki at Stromelysin-1 was 6.8 nM; at Collagenase, 800 nM.

The values above are taken from patent publication US5530128A, “N-sulphonylamino derivatives of dipetide compounds as metalloproteinase inhibitors” (Celltech Therapeutics Limited, priority 1992, dated 1996).
